Counter-ions that a name gives are not always drawn.
biological target: T1, human TLR8 (hTLR8) (Homo sapiens, UniProt Q9NR97); assay: Antagonist screen, hTLR8-NFκB-293 cells, NF-κB-luciferase reporter, with EC50 of R848; format: cell-based; settings: compound at 0.5, 5, 50 μg/ml; EC50 concentration of R848; 16 h; NF-κB-luciferase
T1 construct: expressed in transfected cells
T1 sequence (Q9NR97 27-1041): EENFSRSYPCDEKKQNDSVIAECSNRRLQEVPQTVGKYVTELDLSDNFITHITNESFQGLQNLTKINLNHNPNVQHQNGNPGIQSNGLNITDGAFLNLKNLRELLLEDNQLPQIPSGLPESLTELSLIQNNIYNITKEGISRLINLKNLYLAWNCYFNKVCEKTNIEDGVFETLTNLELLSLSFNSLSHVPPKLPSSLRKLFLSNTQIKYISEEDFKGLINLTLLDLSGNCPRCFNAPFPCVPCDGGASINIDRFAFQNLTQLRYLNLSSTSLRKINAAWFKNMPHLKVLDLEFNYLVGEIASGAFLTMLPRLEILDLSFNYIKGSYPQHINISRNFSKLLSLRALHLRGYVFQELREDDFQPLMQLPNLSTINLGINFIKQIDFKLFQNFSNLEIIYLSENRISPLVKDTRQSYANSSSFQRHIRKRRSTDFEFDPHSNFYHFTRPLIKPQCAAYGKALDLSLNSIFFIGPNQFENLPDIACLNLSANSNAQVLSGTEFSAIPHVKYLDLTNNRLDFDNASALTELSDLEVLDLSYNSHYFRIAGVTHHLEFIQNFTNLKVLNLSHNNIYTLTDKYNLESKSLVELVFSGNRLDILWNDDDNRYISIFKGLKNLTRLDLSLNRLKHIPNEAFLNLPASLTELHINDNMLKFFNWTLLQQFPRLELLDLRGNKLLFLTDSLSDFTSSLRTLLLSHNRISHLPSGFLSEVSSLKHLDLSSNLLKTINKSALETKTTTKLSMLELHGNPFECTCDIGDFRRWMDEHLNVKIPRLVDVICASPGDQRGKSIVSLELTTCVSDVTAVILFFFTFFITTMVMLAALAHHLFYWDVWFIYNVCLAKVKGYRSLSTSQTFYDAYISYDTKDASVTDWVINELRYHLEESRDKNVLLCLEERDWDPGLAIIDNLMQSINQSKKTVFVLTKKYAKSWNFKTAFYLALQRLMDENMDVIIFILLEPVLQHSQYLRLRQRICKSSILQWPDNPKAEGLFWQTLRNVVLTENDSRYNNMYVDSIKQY
Protocol: The method is described in greater detail as follows. The cells for each individual cell clone (hTLR3-NFκB-293, hTLR7-NFκB-293, hTLR8-NFκB-293 and hTLR9-NFκB-293) were counted and seeded one day before the stimulation at 1.5×10^4 cells per well in 96-well cell culture plates. To become adherent the cells were incubated after seeding overnight at 37° C. in 5% CO2 humidified air.
The screen for each compound was performed at the same time for all of the receptors TLR3, TLR7, TLR8 and TLR9. Up to fifteen test compounds, each assayed in duplicate at each of three different final concentrations (0.5 μg/ml, 5 μg/ml, and 50 μg/ml), were used for 16 h cell stimulation on a single multiwell culture plate. A 4× final concentration master plate was created to prepare the different test compounds before they were added to the cells.
Controls were added as duplicates individually for each cell clone on the cell culture plate. Positive controls were used as follows (final concentrations): 50 μg/ml poly(I:C) for hTLR3-NFκB-293; 8 μM resiquimod (R848) for hTLR7-NFκB-293; 30 μM R848 for hTLR8-NFκB-293; and 2.5 μM CpG-ODN 2006 for hTLR9-NFκB-293. Media alone was used as negative control. After addition of controls and small molecules, the cell clones were additionally stimulated with the EC50 concentration of the appropriate receptor-specific ligand.
The mean value of wells H2 and H5 (each with cells and EC50 concentration of the appropriate receptor-specific ligand) divided by the mean of wells H3 and H6 (each with cells alone) yielded the baseline response (i.e., fold induction of luciferase activity) to EC50 concentration of the appropriate receptor-specific ligand.
After 16 h stimulation the supernatant was removed and the cells treated with lysis buffer and stored at −80° C. before measuring.
For each screen result a graphical documentation was performed.
The baseline result (measured with addition of the EC50 concentration of the receptor-specific ligand) for each cell culture plate was measured as described above. Antagonistic effects were measured by down regulation compared to the baseline. Antagonists were scored as follows: • 13: compounds for which there was clear down regulation at 0.5 μg/ml, 5 μg/ml, and 50 μg/ml; • 12: compounds for which there was clear down regulation at 5 μg/ml and 50 μg/ml; • 11: compounds for which there was clear down regulation only at 50 μg/ml; • —: compounds for which there was no clear down regulation even at 50 μg/ml. Agonists
Results were expressed as fold induction over baseline luciferase activity measured in the absence of R848. […] Additional screening was performed in like manner using additional small molecules selected from another library or specifically prepared for this purpose. Scoring is reported as above but as applied to TLR8.

**Q.** For Cc1nccc2c1[nH]c1ccccc12 [compound 620, Harmane hydrochloride], which “hTLR8 (inhibitory effect, antagonist score)” value is on record?
**A.** The value was “— (compounds for which there was no clear down regulation even at 50 μg/ml)”.

**Q.** COc1ccc2c(c1)N(CC(C)CN(C)C)c1ccccc1S2.O=C(O)/C=C\C(=O)O (stereo not drawn) [compound 797, Methotrimeprazinemaleat salt] was tested. Which “hTLR8 (inhibitory effect, antagonist score)” value did it give?
**A.** The value was 11 (compounds for which there was clear down regulation only at 50 μg/ml).

**Q.** How did the “hTLR8 (inhibitory effect, antagonist score)” value turn out when C[C@]12N[C@H](Cc3ccccc31)c1ccccc12.O=C(O)/C=C\C(=O)O [compound 109, Dizocilpine maleate] was run?
**A.** The value was “— (compounds for which there was no clear down regulation even at 50 μg/ml)”.

**Q.** How did the “hTLR8 (inhibitory effect, antagonist score)” value turn out when CN(C)CC/C=C1/c2ccccc2Sc2ccc(Cl)cc21.Cl [compound 348, Chlorprothixenehydrochloride] was run?
**A.** Its value is 11 (compounds for which there was clear down regulation only at 50 μg/ml).

**Q.** With Nc1cccc2c1C(=O)c1cccc(N)c1C2=O [compound 413, Anthraquinone,1,5-diamino] as the compound, how does the “hTLR8 (inhibitory effect, antagonist score)” value read?
**A.** The value was 11 (compounds for which there was clear down regulation only at 50 μg/ml).

**Q.** For CC(=O)Oc1cc(C)c(C2(c3cc(C(C)C)c(OC(C)=O)cc3C)OC(=O)c3ccccc32)cc1C(C)C [compound 1161], which “hTLR8 (inhibitory effect, antagonist score)” value is on record?
**A.** The value was 12 (compounds for which there was clear down regulation at 5 μg/ml and 50 μg/ml).

**Q.** How did the “hTLR8 (inhibitory effect, antagonist score)” value turn out when CN(C)CCCN1c2ccccc2Sc2ccc(Cl)cc21.Cl [compound 64, Chlorpromazinehydrochloride] was run?
**A.** Its value is 11 (compounds for which there was clear down regulation only at 50 μg/ml).

**Q.** CN1CCN(CCCN2c3ccccc3Sc3ccc(S(=O)(=O)N(C)C)cc32)CC1.CS(=O)(=O)O.CS(=O)(=O)O [compound 149, Thioproperasinedimesylate] was tested. Which “hTLR8 (inhibitory effect, antagonist score)” value did it give?
**A.** The value was “— (compounds for which there was no clear down regulation even at 50 μg/ml)”.

**Q.** With COC(=O)[C@H]1[C@H]2C[C@@H]3c4[nH]c5cc(OC)ccc5c4CCN3C[C@H]2C[C@@H](OC(=O)/C=C/c2cc(OC)c(OC)c(OC)c2)[C@@H]1OC [compound 568, Rescinnamin] as the compound, how does the “hTLR8 (inhibitory effect, antagonist score)” value read?
**A.** Its value is “— (compounds for which there was no clear down regulation even at 50 μg/ml)”.

**Q.** With O=C1c2c(O)cccc2Cc2cccc(O)c21 [compound 43, Anthralin] as the compound, how does the “hTLR8 (inhibitory effect, antagonist score)” value read?
**A.** The value was 12 (compounds for which there was clear down regulation at 5 μg/ml and 50 μg/ml).

**Q.** With Cc1nccc2c1[nH]c1cc(O)ccc12.Cl [compound 612, Harmol hydrochloride monohydrate] as the compound, how does the “hTLR8 (inhibitory effect, antagonist score)” value read?
**A.** The value was 11 (compounds for which there was clear down regulation only at 50 μg/ml).

**Q.** How did the “hTLR8 (inhibitory effect, antagonist score)” value turn out when CN1CCC(=C2c3ccccc3Sc3ccccc32)CC1.O=C(O)/C=C\C(=O)O [compound 294, Pimethixene maleate] was run?
**A.** Its value is 11 (compounds for which there was clear down regulation only at 50 μg/ml).

**Q.** With O=c1[nH]c2ccccc2n1C1CCN(CCCC(c2ccc(F)cc2)c2ccc(F)cc2)CC1 [compound 308, Pimozide] as the compound, how does the “hTLR8 (inhibitory effect, antagonist score)” value read?
**A.** Its value is 11 (compounds for which there was clear down regulation only at 50 μg/ml).

**Q.** CCOC(=O)Oc1c(OC)cc(C(=O)O[C@@H]2C[C@@H]3CN4CCc5c([nH]c6cc(OC)ccc56)[C@H]4C[C@@H]3[C@H](C(=O)OC)[C@H]2OC)cc1OC [compound 564, Syrosingopine] was tested. Which “hTLR8 (inhibitory effect, antagonist score)” value did it give?
**A.** Its value is 12 (compounds for which there was clear down regulation at 5 μg/ml and 50 μg/ml).

**Q.** For OC(c1ccccc1)(c1ccccc1)C1CCNCC1 [compound 93, Azacyclonol], which “hTLR8 (inhibitory effect, antagonist score)” value is on record?
**A.** The value was “— (compounds for which there was no clear down regulation even at 50 μg/ml)”.

**Q.** How did the “hTLR8 (inhibitory effect, antagonist score)” value turn out when CN(C)CCC=C1c2ccccc2CCc2ccccc21.Cl [compound 74, Amitryptilinehydrochloride] was run?
**A.** The value was “— (compounds for which there was no clear down regulation even at 50 μg/ml)”.

**Q.** For COC(=O)c1cccc(C(O)(c2ccccc2)c2ccccc2)c1S(=O)(=O)C(C)(C)C [compound 1187], which “hTLR8 (inhibitory effect, antagonist score)” value is on record?
**A.** The value was 11 (compounds for which there was clear down regulation only at 50 μg/ml).

**Q.** With COC(=O)c1ccc(C2CC(=O)Nc3c2ccc2ccccc32)cc1 (stereo not drawn) [compound 965] as the compound, how does the “hTLR8 (inhibitory effect, antagonist score)” value read?
**A.** The value was “— (compounds for which there was no clear down regulation even at 50 μg/ml)”.

**Q.** O=C(c1cccc2c1-c1ccccc1/C2=N\O)N1CCCCC1 [compound 1050] was tested. Which “hTLR8 (inhibitory effect, antagonist score)” value did it give?
**A.** The value was 11 (compounds for which there was clear down regulation only at 50 μg/ml).

**Q.** How did the “hTLR8 (inhibitory effect, antagonist score)” value turn out when Cc1cccc(C2(c3cccc(C)c3)OC(=O)c3ccccc32)c1 [compound 1308] was run?
**A.** Its value is 12 (compounds for which there was clear down regulation at 5 μg/ml and 50 μg/ml).

**Q.** For C[N+]12CCC(CC1)C(OC(=O)C(O)(c1ccccc1)c1ccccc1)C2.[Br-] (stereo not drawn) [compound 822, Clidinium bromide], which “hTLR8 (inhibitory effect, antagonist score)” value is on record?
**A.** The value was “— (compounds for which there was no clear down regulation even at 50 μg/ml)”.

**Q.** Which “hTLR8 (inhibitory effect, antagonist score)” value does the source give for CC[C@]12CCCN3CCc4c(n(c5ccccc45)[C@](O)(C(=O)OC)C1)[C@@H]32 [compound 636, Epivincamine] here?
**A.** The value was “— (compounds for which there was no clear down regulation even at 50 μg/ml)”.

**Q.** With CCOC(=O)c1cc([N+](=O)[O-])cc2c1-c1ccc([N+](=O)[O-])cc1C2=C(C#N)C#N [compound 1039] as the compound, how does the “hTLR8 (inhibitory effect, antagonist score)” value read?
**A.** The value was 11 (compounds for which there was clear down regulation only at 50 μg/ml).

**Q.** With COC(=O)[C@H]1[C@H]2C[C@@H]3c4[nH]c5cc(OC)ccc5c4CCN3C[C@H]2C[C@@H](OC(=O)c2cc(OC)c(OC)c(OC)c2)[C@@H]1OC [compound 875, Reserpine] as the compound, how does the “hTLR8 (inhibitory effect, antagonist score)” value read?
**A.** Its value is “— (compounds for which there was no clear down regulation even at 50 μg/ml)”.

**Q.** Which “hTLR8 (inhibitory effect, antagonist score)” value does the source give for CN(C)CCCN1c2ccccc2Sc2ccc(C(F)(F)F)cc21.Cl [compound 53, Triflupromazinehydrochloride] here?
**A.** Its value is 11 (compounds for which there was clear down regulation only at 50 μg/ml).

**Q.** O=C(O)c1ccccc1NC1CC=CC2=C1C(=O)c1ccccc1C2=O (stereo not drawn) [compound 917] was tested. Which “hTLR8 (inhibitory effect, antagonist score)” value did it give?
**A.** The value was “— (compounds for which there was no clear down regulation even at 50 μg/ml)”.

**Q.** Which “hTLR8 (inhibitory effect, antagonist score)” value does the source give for Cc1cc(OC(=O)C2C3CCCCC32)c(C(C)C)cc1C1(c2cc(C(C)C)c(OC(=O)C3C4CCCCC43)cc2C)OC(=O)c2ccccc21 (stereo not drawn) [compound 974] here?
**A.** The value was 11 (compounds for which there was clear down regulation only at 50 μg/ml).

**Q.** How did the “hTLR8 (inhibitory effect, antagonist score)” value turn out when CN1Cc2c(N)cccc2C(c2ccccc2)C1.O=C(O)/C=C\C(=O)O (stereo not drawn) [compound 108, Nomifensine maleate] was run?
**A.** The value was “— (compounds for which there was no clear down regulation even at 50 μg/ml)”.

**Q.** How did the “hTLR8 (inhibitory effect, antagonist score)” value turn out when Maprotilinehydrochloride [compound 346] was run?
**A.** Its value is 11 (compounds for which there was clear down regulation only at 50 μg/ml).

**Q.** With O=C(O)c1cccc2c1-c1ccccc1/C2=N/Nc1ccc([N+](=O)[O-])cc1[N+](=O)[O-] [compound 944] as the compound, how does the “hTLR8 (inhibitory effect, antagonist score)” value read?
**A.** Its value is “— (compounds for which there was no clear down regulation even at 50 μg/ml)”.

Source: patent US7410975B2, “Small molecule toll-like receptor (TLR) antagonists” (Coley Pharmaceutical Group, Inc., priority 2003, dated 2008)
